Measurements taken from patent US6500842B1, “8-hydroxy-7-substituted quinolines as anti-viral agents” (Pharmacia & Upjohn Company, priority 1996, dated 2002).
pIC50: −log10 of the molar value. “And” between values parts separate entries of the source, which are not always exact repeats. Identical values can stand only once.

target: T1, HCMV polymerase (Human cytomegalovirus, UniProt P08546); assay: HCMV polymerase assay (scintillation proximity assay); type: biochemical; settings: IC50 uM, Table 10; CMV pol Assay
T1 construct: made in house; host or cells: recombinant baculovirus-infected SF-9 cells
Method: The HCMV polymerase assay is performed using a scintillation proximity assay (SPA) as described in several references, such as N. D. Cook, et al., Pharmaceutical Manufacturing International, pages 49-53 (1992); K. Takeuchi, Laboratory Practice, September issue (1992); U.S. Pat. No. 4,568,649 (1986); which are incorporated by reference herein. Reactions are performed in 96-well plates. The assay is conducted in 100 μl volume with 5.4 mM HEPES (pH 7.5), 11.7 mM KCl, 4.5 mM MgCl2, 0.36 mg/ml BSA, and 90 nM ^3H-dTTP. Assays are run with and without CHAPS, (3-[(3-Cholamidopropyl)-dimethylammonio]-1-propane-sulfonate) at a final concentration of 2 mM. HCMV is diluted in enzyme dilution buffer containing 50% glycerol, 250 mM NaCl, 10 mM HEPES (pH 7.5), 100 pg/ml BSA, and 0.01% sodium azide. The HCMV polymerase, which is expressed in recombinant baculovirus-infected SF-9 cells and purified according to literature procedures, is added at 10% (or 10 μl) of the final reaction volume, i.e., 100 μl. Compounds are diluted in 50% DMSO and 10 μl are added to each well. Control wells contain an equivalent concentration of DMSO. Unless noted otherwise, reactions are initiated via the addition of 6 nM biotinylated poly(dA)-oligo(dT) template/primer to reaction mixtures containing the enzyme, substrate, and compounds of interest. Plates are incubated in a 25° C. of 37° C. H2O bath and terminated via the addition of 40 μl/reaction of 0.5 M EDTA (pH 8) per well. Reactions are terminated within the time-frame during which substrate incorporation is linear and varied depending upon the enzyme and conditions used, i.e., 30 min. for HCMV polymerase. Ten μl of streptavidin-SPA beads (20 mg/ml in PBS/10% glycerol) are added following termination of the reaction. Plates are incubated 10 min. at 37° C., then equilibrated to room temperature, and counted on a Packard Topcount. Linear regressions are performed and IC50's are calculated using computer software. Results of the testing of compounds of the present invention in this assay are shown in Tables 1, 2, 5, 9, 10, 11, 13 (except for the last compound which was tested under modified conditions) and 14 below.

T1 sequence (P08546 whole entry): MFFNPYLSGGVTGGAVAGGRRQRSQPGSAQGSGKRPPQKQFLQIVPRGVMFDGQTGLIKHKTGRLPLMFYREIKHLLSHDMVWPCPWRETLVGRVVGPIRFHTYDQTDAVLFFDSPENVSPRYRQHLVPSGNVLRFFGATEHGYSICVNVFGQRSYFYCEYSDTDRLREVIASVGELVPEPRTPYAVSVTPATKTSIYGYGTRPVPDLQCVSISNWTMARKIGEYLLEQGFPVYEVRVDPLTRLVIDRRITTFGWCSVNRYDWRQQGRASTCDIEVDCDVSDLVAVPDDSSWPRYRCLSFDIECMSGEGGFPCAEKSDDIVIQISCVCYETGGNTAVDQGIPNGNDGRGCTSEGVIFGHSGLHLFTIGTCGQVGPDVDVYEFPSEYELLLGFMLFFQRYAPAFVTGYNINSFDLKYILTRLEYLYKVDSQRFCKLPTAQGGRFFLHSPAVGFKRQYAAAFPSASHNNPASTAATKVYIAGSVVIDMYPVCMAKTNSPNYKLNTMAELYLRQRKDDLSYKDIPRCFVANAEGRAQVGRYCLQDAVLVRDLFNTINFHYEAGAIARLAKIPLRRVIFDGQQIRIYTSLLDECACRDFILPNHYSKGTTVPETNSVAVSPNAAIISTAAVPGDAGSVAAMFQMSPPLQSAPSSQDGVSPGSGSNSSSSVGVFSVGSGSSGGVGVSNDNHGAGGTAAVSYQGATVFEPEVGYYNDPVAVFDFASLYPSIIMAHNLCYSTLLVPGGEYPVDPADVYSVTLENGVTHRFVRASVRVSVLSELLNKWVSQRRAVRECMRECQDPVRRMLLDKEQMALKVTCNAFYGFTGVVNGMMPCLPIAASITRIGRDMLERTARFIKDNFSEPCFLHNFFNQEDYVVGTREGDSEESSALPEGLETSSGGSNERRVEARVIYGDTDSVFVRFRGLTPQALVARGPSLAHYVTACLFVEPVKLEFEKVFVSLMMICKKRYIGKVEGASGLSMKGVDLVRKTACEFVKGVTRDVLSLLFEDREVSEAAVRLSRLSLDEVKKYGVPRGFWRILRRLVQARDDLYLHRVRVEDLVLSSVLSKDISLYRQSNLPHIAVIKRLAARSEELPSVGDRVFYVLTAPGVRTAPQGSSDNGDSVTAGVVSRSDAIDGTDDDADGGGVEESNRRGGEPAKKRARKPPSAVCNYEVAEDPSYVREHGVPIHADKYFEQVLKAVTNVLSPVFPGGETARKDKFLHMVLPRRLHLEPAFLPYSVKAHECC

SMILES | IC50
O=C(Nc1ccc2c(C(F)(F)F)cc(=O)oc2c1)c1ccc2cccnc2c1O | 9.5 µM

same assay, conditions: Table 9; read-out: CMV pol Assay- IC50

SMILES | pIC50
O=C(NCC(c1ccccc1)c1ccccc1)c1ccc2cccnc2c1O | 6.05
O=C(NCCC(c1ccccc1)c1ccccc1)c1ccc2cccnc2c1O | > 5.82
CC1(C)C2CCC(CNC(=O)c3ccc4cccnc4c3O)C1C2 (stereo not shown) | 5.82
CCCCCCC(C)NC(=O)c1ccc2cccnc2c1O (stereo not shown) | 5.77
O=C(N[C@@H](c1ccccc1)[C@H](O)c1ccccc1)c1ccc2cccnc2c1O | 5.66 and 5.33
CCCCCCCCCNC(=O)c1ccc2cccnc2c1O | 5.66
CC(C)(C)C1CCC(NC(=O)c2ccc3cccnc3c2O)CC1 (stereo not shown) | 5.64
C[C@@H](NC(=O)c1ccc2cccnc2c1O)c1cccc2ccccc12 | > 5.51 and 5.62 and 4.97
CC(NC(=O)c1ccc2cccnc2c1O)c1ccc(Br)cc1 (stereo not shown) | 5.59
O=C(N[C@H](c1ccccc1)[C@@H](O)c1ccccc1)c1ccc2cccnc2c1O | 5.54 and 5.19
C[C@H](NC(=O)c1ccc2cccnc2c1O)c1cccc2ccccc12 | 5.52
O=C(NCc1c(Cl)cccc1Oc1ccccc1)c1ccc2cccnc2c1O | 5.51
CCCCCCCCCCCNC(=O)c1ccc2cccnc2c1O | > 5.51
CC1CCCCC1NC(=O)c1ccc2cccnc2c1O (stereo not shown) | > 5.51 and < 5.00
O=C(N[C@H](CO)Cc1ccc(O)cc1)c1ccc2cccnc2c1O | 5.51
CCCCC(CC)CNC(=O)c1ccc2cccnc2c1O (stereo not shown) | 5.49
O=C(NCc1cccc2ccccc12)c1ccc2cccnc2c1O | 5.43
O=C(NCCc1ccc(Oc2ccccc2)cc1)c1ccc2cccnc2c1O | 5.35
C[C@@H](NC(=O)c1ccc2cccnc2c1O)c1ccc(Br)cc1 | 5.34
COC(=O)[C@H](Cc1ccc(OCc2ccccc2)cc1)NC(=O)c1ccc2cccnc2c1O | 5.31
O=C(NCCc1ccc(Br)cc1)c1ccc2cccnc2c1O | 5.30
O=C(NCc1ccc(Cl)cc1Cl)c1ccc2cccnc2c1O | 5.28
CCCCCCCNC(=O)c1ccc2cccnc2c1O | 5.28
CCCCCCCCNC(=O)c1ccc2cccnc2c1O | 5.25
O=C(NCc1ccc(Cl)c(Cl)c1)c1ccc2cccnc2c1O | 5.25

SMILES | pIC50
O=C(NC1(CO)CCCC1)c1ccc2cccnc2c1O | 5.18
O=C(NCCc1ccc(Cl)cc1)c1ccc2cccnc2c1O | 5.17
O=C(NCCc1cccc(Cl)c1)c1ccc2cccnc2c1O | 5.16
O=C(NCc1c(F)cccc1F)c1ccc2cccnc2c1O | 5.15
CCCCCCCCCCNC(=O)c1ccc2cccnc2c1O | 5.15
O=C(NCCCCc1ccccc1)c1ccc2cccnc2c1O | 5.13
O=C(NC1CCCCCCC1)c1ccc2cccnc2c1O | 5.12
O=C(NC1CCCc2ccccc21)c1ccc2cccnc2c1O (stereo not shown) | 5.12
O=C(NCC(O)c1ccccc1)c1ccc2cccnc2c1O (stereo not shown) | 5.11
CCCCCC(C)NC(=O)c1ccc2cccnc2c1O (stereo not shown) | 5.10
CC(C)(C)OC(=O)[C@H](Cc1ccc(O)cc1)NC(=O)c1ccc2cccnc2c1O | 5.09
O=C(NCCSCc1c(Cl)cccc1Cl)c1ccc2cccnc2c1O | 5.08
CC1CCCC(NC(=O)c2ccc3cccnc3c2O)C1C (stereo not shown) | 5.08
O=C(NCc1cccc(C(F)(F)F)c1)c1ccc2cccnc2c1O | 5.07
O=C(NCc1cccc(Cl)c1)c1ccc2cccnc2c1O | 5.06
O=C(NCCc1ccc(Cl)cc1Cl)c1ccc2cccnc2c1O | 5.05
O=C(N[C@@H](CO)C(=O)OCc1ccccc1)c1ccc2cccnc2c1O | 4.95 and 5.04
O=C(NCCSc1ccccc1)c1ccc2cccnc2c1O | 5.04
O=C(NCCCc1ccccc1)c1ccc2cccnc2c1O | 5.03
O=C(NCc1ccccc1Sc1ccccc1CO)c1ccc2cccnc2c1O | 5.03
O=C(NCCSCc1c(F)cccc1Cl)c1ccc2cccnc2c1O | 5.02
COC(=O)[C@H](Cc1ccc([N+](=O)[O-])cc1)NC(=O)c1ccc2cccnc2c1O | 4.97
O=C(NCCc1c[nH]c2ccccc12)c1ccc2cccnc2c1O | 4.95
COC(=O)C(Cc1ccc(O)cc1)NC(=O)c1ccc2cccnc2c1O (stereo not shown) | 4.92
O=C(NCCSc1cc(C(F)(F)F)nc2ccccc12)c1ccc2cccnc2c1O | 4.90

SMILES | pIC50
O=C(NC1CCc2ccccc21)c1ccc2cccnc2c1O (stereo not shown) | 4.88
O=C(NCc1ccc(C(F)(F)F)cc1)c1ccc2cccnc2c1O | 4.86
O=C(NCc1cccc(Cl)c1Cl)c1ccc2cccnc2c1O | 4.84
CC(CNC(=O)c1ccc2cccnc2c1O)c1ccccc1 (stereo not shown) | 4.83
O=C(NCc1ccccc1C(F)(F)F)c1ccc2cccnc2c1O | 4.80
Cc1ccc(CCNC(=O)c2ccc3cccnc3c2O)cc1 | 4.77
O=C(NCc1cc(Cl)ccc1Cl)c1ccc2cccnc2c1O | 4.77
O=C(NCc1ccc(F)c(Cl)c1)c1ccc2cccnc2c1O | 4.76
O=C(N[C@@H]1CC2CCC1C2)c1ccc2cccnc2c1O (stereo partly shown) | 4.72
COc1cc(CNC(=O)c2ccc3cccnc3c2O)ccc1O | 4.71
O=C(NCc1ccccc1Cl)c1ccc2cccnc2c1O | 4.71
O=C(NCCc1ccc(O)cc1)c1ccc2cccnc2c1O | 4.70
CC1CCCC(NC(=O)c2ccc3cccnc3c2O)C1 (stereo not shown) | 4.69
CCCCCCCCCCCCCCCCCCNC(=O)c1ccc2cccnc2c1O | 4.68
O=C(NCCC1=CCCCC1)c1ccc2cccnc2c1O | 4.68
CC(NC(=O)c1ccc2cccnc2c1O)c1ccccc1 (stereo not shown) | 4.65
O=C(NCc1cc(F)ccc1F)c1ccc2cccnc2c1O | 4.65
Cc1cccc(CNC(=O)c2ccc3cccnc3c2O)c1 | 4.65
Cc1ccccc1CNC(=O)c1ccc2cccnc2c1O | 4.63
CC1CCC(NC(=O)c2ccc3cccnc3c2O)CC1 (stereo not shown) | 4.63
O=C(NC1CCCCCC1)c1ccc2cccnc2c1O | 4.62
O=C(NCC1CCCCC1)c1ccc2cccnc2c1O | 4.62
O=C(NC1C2CC3CC(C2)CC1C3)c1ccc2cccnc2c1O (stereo not shown) | 4.61
C[C@@H](NC(=O)c1ccc2cccnc2c1O)c1ccccc1 | 4.61
CCOC(=O)C(Cc1c[nH]c2ccccc12)NC(=O)c1ccc2cccnc2c1O (stereo not shown) | 4.61 and 4.53

same assay, conditions: Table 10; CMV pol Assay; read-out: IC50

SMILES | pIC50
O=C(Nc1cc(C(F)(F)F)cc(C(F)(F)F)c1)c1ccc2cccnc2c1O | 4.17
Cc1noc(NS(=O)(=O)c2ccc(NC(=O)c3ccc4cccnc4c3O)cc2)c1C | 4.05
O=C(Nc1ccc2c(c1)OCO2)c1ccc2cccnc2c1O | 4.79
O=C(Nc1ccccc1Br)c1ccc2cccnc2c1O | 4.80
O=C(Nc1cc(Br)ccc1Br)c1ccc2cccnc2c1O | 5.00
O=C(Nc1ccccc1F)c1ccc2cccnc2c1O | 4.56
N#Cc1c(F)c(F)c(NC(=O)c2ccc3cccnc3c2O)c(F)c1F | 4.73
O=C(Nc1ccc(F)cc1F)c1ccc2cccnc2c1O | 4.57
O=C(Nc1cc(F)c(F)cc1F)c1ccc2cccnc2c1O | 4.56
O=C(Nc1ccccc1Cl)c1ccc2cccnc2c1O | 5.03
O=C(Nc1ccc([N+](=O)[O-])cc1Cl)c1ccc2cccnc2c1O | 5.48
Cc1ccc(Cl)c(NC(=O)c2ccc3cccnc3c2O)c1 | 5.12
O=C(Nc1ccccc1I)c1ccc2cccnc2c1O | 4.90
O=C(Nc1ccccc1[N+](=O)[O-])c1ccc2cccnc2c1O | < 4.00
O=C(Nc1cc(Cl)ccc1O)c1ccc2cccnc2c1O | 4.86
O=C(Nc1ccccc1-c1ccccc1)c1ccc2cccnc2c1O | 5.37
CSc1ccccc1NC(=O)c1ccc2cccnc2c1O | 5.09
Cc1ccccc1NC(=O)c1ccc2cccnc2c1O | 4.87
Cc1c(NC(=O)c2ccc3cccnc3c2O)cccc1[N+](=O)[O-] | 5.26
Cc1cccc(NC(=O)c2ccc3cccnc3c2O)c1C | 5.07
CCc1ccccc1NC(=O)c1ccc2cccnc2c1O | 5.14
O=C(Nc1cccc(C(F)(F)F)c1)c1ccc2cccnc2c1O | 4.74
Cc1cc(F)ccc1NC(=O)c1ccc2cccnc2c1O | 4.99
Cc1cc(Cl)ccc1NC(=O)c1ccc2cccnc2c1O | 5.44
COc1cc(Cl)c(C)cc1NC(=O)c1ccc2cccnc2c1O | 5.10
CCCc1ccc(NC(=O)c2ccc3cccnc3c2O)cc1 | 5.51
O=C(Nc1ccc(Br)cc1F)c1ccc2cccnc2c1O | 5.16
COc1ccc(Cl)c(NC(=O)c2ccc3cccnc3c2O)c1 | 5.15
O=C(Nc1ccc(CO)cc1)c1ccc2cccnc2c1O | 5.43
O=C(Nc1ccc(Br)cn1)c1ccc2cccnc2c1O | 4.67
